Experimental data published in paper PMC6934700, “Structure-Guided Design of a Fluorescent Probe for the Visualization of FtsZ in Clinically Important Gram-Positive and Gram-Negative Bacterial Pathogens” (Scientific Reports, 2019).
≈ marks a conversion by molar mass, not a printed value. Each block holds one compound with its values, some of them ahead of it.

Key:
[1] = biological target: T1, S. aureus (SaFtsZ) (Staphylococcus aureus, UniProt P0A031); assay: biochemical; format: binding; settings: 0.1 µM compound, 10 µM SaFtsZ, 37 °C
T1 construct: 6xHis (C); made in house; host or cells: E. coli BLR (DE3), pET-22b(+)
T1 sequence (P0A031 1-390): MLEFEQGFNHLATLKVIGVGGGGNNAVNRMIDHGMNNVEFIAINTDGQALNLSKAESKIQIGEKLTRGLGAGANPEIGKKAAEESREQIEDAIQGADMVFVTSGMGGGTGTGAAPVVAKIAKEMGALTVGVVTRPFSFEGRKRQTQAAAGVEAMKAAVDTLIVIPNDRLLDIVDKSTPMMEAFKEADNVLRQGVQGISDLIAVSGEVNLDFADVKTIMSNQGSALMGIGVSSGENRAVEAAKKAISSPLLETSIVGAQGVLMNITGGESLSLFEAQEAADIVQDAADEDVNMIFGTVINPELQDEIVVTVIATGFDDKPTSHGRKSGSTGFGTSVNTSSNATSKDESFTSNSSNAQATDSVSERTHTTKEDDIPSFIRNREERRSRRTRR
Method: (§1) Fluorescence anisotropy experiments were performed using an AVIV model ATF105 spectrofluorometer at 15, 25, or 37 °C. In these experiments, bandwidths were set to 4 nm in both the excitation and emission directions, with the excitation and emission wavelengths being set at 488 nm and 510 nm, respectively. BOFP (0.1 µM) was titrated with increasing concentrations (ranging from 0 to 12 µM) of FtsZ in 120 µL of buffer containing 50 mM Tris-HCl (pH 7.6) and 50 mM KCl. After each protein addition, the samples were equilibrated for 3 minutes, whereupon the fluorescence anisotropy was measured.
(§2) In this equation, r0 is the anisotropy of the protein-free compound, r∞ is the anisotropy of the compound in the presence of an infinite concentration of FtsZ, [C]tot is the total concentration of the compound, and [P]tot is the total concentration of protein with each addition. These analyses yielded the equilibrium dissociation constant (Kd) for each binding reaction.
(§3) The binding free energy (ΔG) at temperature T was derived from the corresponding Kd value determined at T using the following relationship:2 ΔG=−RTln(1/Kd)
(§4) The binding enthalpy (ΔH) and entropy (ΔS) were derived from linear fits of the ln(1/Kd) vs. 1/T plots shown in Figs. 3f and 5e using the following relationship:3 ln(1/Kd)=−ΔH/R(1/T)+ΔS/R
The impact of guanosine nucleotide and magnesium on the binding of BOFP to SaFtsZ was assessed at 37 °C in the same buffer described above. In these studies, the anisotropy of 0.1 µM BOFP alone or in the presence of 10 µM SaFtsZ was measured, with the latter also being measured in the presence of 0.1 mM GMPCPP (a non-hydrolyzable GTP analog), 10 mM MgCl2, or both.
(§5) In comparative control experiments, the anisotropy of 0.1 µM BODIPY FL-COOH or BOFP alone or in the presence of SaFtsZ (10 µM), SpyFtsZ (10 µM), KpFtsZ (2 µM), or PaFtsZ (2 µM) was measured at 37 °C in the same buffer described above.

[2] = biological target: S. pyogenes (SpyFtsZ) (Streptococcus pyogenes, UniProt Q99YV7); assay: Fluorescence anisotropy binding of BOFP to SpyFtsZ; settings: 0.1 µM compound, 10 µM SpyFtsZ, 37 °C
Chain of S. pyogenes (SpyFtsZ) (Q99YV7 entry or part of it): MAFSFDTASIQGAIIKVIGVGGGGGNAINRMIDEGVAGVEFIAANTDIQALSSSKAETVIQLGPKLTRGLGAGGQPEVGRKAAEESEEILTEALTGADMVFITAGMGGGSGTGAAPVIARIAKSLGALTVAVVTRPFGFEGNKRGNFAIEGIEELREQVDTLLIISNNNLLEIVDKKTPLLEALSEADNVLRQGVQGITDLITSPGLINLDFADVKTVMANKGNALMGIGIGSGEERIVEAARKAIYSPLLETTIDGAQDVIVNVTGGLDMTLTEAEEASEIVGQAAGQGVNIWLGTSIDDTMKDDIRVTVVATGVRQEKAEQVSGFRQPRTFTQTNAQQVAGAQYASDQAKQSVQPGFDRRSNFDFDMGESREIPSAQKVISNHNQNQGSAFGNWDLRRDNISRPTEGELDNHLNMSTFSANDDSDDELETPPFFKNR
Method: as §1, §2, §3, §4, §5

[3] = biological target: K. pneumoniae (KpFtsZ) (Klebsiella pneumoniae, UniProt A0A0H3GRR0); assay: Fluorescence anisotropy binding of BOFP to KpFtsZ; settings: 0.1 µM compound, 2 µM KpFtsZ, 37 °C
Chain of K. pneumoniae (KpFtsZ) (A0A0H3GRR0 entry or part of it): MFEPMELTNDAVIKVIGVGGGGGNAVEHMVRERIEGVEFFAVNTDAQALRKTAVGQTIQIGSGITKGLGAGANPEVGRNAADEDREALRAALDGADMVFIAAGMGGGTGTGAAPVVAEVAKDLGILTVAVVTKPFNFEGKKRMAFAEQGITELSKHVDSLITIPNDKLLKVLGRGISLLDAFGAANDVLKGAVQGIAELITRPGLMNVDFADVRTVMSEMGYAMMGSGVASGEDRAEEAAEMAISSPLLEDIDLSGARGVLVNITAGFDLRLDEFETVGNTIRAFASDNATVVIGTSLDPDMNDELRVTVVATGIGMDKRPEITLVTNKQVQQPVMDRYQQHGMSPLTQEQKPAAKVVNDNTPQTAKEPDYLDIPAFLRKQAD
Method: as §1, §2, §3, §4, §5

[4] = biological target: T2, P. aeruginosa (PaFtsZ) (Pseudomonas aeruginosa, UniProt P47204); assay: Fluorescence anisotropy binding of BOFP to PaFtsZ; settings: 0.1 µM compound, 2 µM PaFtsZ, 37 °C
T2 construct: 6xHis (C); made in house; host or cells: E. coli BLR (DE3), pET-22b(+)
T2 sequence (P47204 1-394): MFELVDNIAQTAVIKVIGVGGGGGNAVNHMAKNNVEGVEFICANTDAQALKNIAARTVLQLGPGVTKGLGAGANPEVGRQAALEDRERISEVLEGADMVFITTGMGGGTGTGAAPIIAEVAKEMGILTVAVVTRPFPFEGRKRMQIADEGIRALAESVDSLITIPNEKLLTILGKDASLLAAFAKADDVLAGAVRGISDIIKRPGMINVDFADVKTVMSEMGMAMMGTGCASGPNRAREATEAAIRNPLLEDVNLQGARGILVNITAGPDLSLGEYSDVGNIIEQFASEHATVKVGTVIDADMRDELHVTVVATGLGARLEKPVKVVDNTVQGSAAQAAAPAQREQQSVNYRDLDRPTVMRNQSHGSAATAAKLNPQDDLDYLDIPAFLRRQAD
Method: as §1, §2, §3, §4, §5

[5] = biological target: T3, FtsZ in S. aureus NRS705 cells (Staphylococcus aureus, UniProt P0A031); format: cell-based; settings: 1 µg/mL for 5 minutes
T3 construct: endogenous in cells; host or cells: S. aureus NRS705 (USA100 MRSA)
Method: (§6) All differential interference contrast (DIC) and fluorescence microscopy experiments were conducted using an Olympus BX50 microscope equipped with an X-cite Exacte 200 W mercury lamp, a 100× Olympus UPLSAPO oil immersion objective (1.40 aperture), as well as both Chroma ET-EGFP (FITC/Cy2) and ET mCherry, Texas Red filters. Images were captured using a QImaging Retiga R3 charge-coupled device (CCD) camera and the Ocular-Version 2.0 software package (QImaging).
For visualizing FtsZ in Gram-positive bacteria using BOFP, the bacterial cells were grown to log-phase in media suitable for each individual pathogen. Specifically, S. aureus NRS705 (MRSA) was grown in tryptic soy broth (TSB), E. faecalis ATCC 29212 and E. faecium ATCC 19434 were grown in lactobacilli MRS broth, S. agalactiae ATCC 12386 and S. pneumoniae ATCC 49619 were grown in TH broth, and S. pyogenes ATCC 19615 was grown in CAMH broth supplemented with 3% (v/v) LHB. For each Gram-positive bacterial strain, a total of 1 mL of cell culture was centrifuged at 15,000 × g for 1 minute and washed 2–3 times with 1 mL of PBS. After the final wash, the pelleted cells were resuspended in 500 µL of PBS containing 1 µg/mL of BOFP and incubated in the dark for 5 minutes at room temperature. The cells were then centrifuged at 15,000 × g for 1 minute, washed twice with 1 mL of PBS, and subsequently resuspended in 200 µL of PBS. […]

[6] = tested on: FtsZ in K. pneumoniae ATCC 13883 cells; assay: FtsZ visualization by fluorescence microscopy in live cells; format: cell-based, Klebsiella pneumoniae; settings: 1 µg/mL for 5 minutes, co-treated with 3.5 mg/mL pentamidine isethionate
Method: as §6
For visualizing FtsZ in Gram-negative bacteria using BOFP, E. coli ATCC 25922, K. pneumoniae ATCC 13883, P. aeruginosa ATCC 27853, and A. baumannii ATCC 19606 were grown to log-phase in CAMH broth. For each Gram-negative bacterial strain, a total of 1 mL of cell culture was centrifuged at 15,000 × g for 1 minute and washed twice with 1 mL of Tris-buffered saline (TBS) composed of 50 mM Tris-HCl (pH 7.6) and 150 mM NaCl. After the final wash, the pelleted cells were resuspended in 500 µL of TBS containing 1 µg/mL of BOFP and pentamidine isethionate (at 0.875 mg/mL for E. coli and 3.5 mg/mL for the other three strains). The resuspended cells were then incubated in the dark for 5 minutes at room temperature, centrifuged at 15,000 × g for 1 minute, washed twice with 1 mL of TBS, and subsequently resuspended in 200 µL of TBS. This final cell suspension was then prepared for microscopy as described for the Gram-positive bacterial strains. Comparative control experiments with 1 µg/mL BODIPY FL-COOH were conducted in K. pneumoniae ATCC 13883 cells as described above for BOFP.

[7] = tested on: S. aureus NRS705 (MRSA); assay: MIC assay by broth microdilution; format: cell-based, Staphylococcus aureus; settings: for 4× MIC: S. aureus NRS705, concentration equal to four times the MIC; for MIC: Staphylococcus aureus, MRSA NRS705, TH broth, ≥90% growth inhibition after 18-24 hours
Method: MIC assays of 1, 3, and BOFP were conducted by standard broth microdilution in TH media. Briefly, log-phase S. aureus NRS705 (MRSA) cells were added to 96-well microtiter plates (at 5 × 10^5 CFU/mL) containing 2-fold serial dilutions of each test compound in 0.1 mL of TH broth, with each compound concentration being present in duplicate. The MIC is defined as the lowest compound concentration at which growth is ≥90% inhibited after 18-24 hours of aerobic growth.

[8] = tested on: S. aureus NRS705; assay: Impact of FtsZ inhibitor treatment on cell morphology and FtsZ localization (DIC/fluorescence microscopy, BOFP labeling); format: cell-based, Staphylococcus aureus; settings: treated at 4x MIC for 3 hours
Method: as §6
(§7) To visualize the impact of treatment with the FtsZ inhibitor 1 using BOFP, S. aureus NRS705 (MRSA), E. coli N43, and K. pneumoniae ATCC 10031 were grown to log-phase in CAMH broth and diluted to an OD600 of 0.1. […] Following this treatment, 1–5 mL of each culture was centrifuged at 15,000 × g for 1 minute and washed twice with 1 mL of PBS (for S. aureus) or TBS (for E. coli and K. pneumoniae). The resulting S. aureus cell pellets were further processed and labeled with BOFP as described above for the Gram-positive bacterial strains and the resulting E. coli and K. pneumoniae cell pellets were further processed and labeled with BOFP as described above for the Gram-negative bacterial strains. The impact of treating S. aureus NRS705 cells with the FtsZ inhibitors PC190723 and TXA707 at 4× MIC (2 µg/mL for PC190723 and 4 µg/mL for TXA707) was also examined using BOFP as described above.

[9] = tested on: E. coli N43; assay: as above; format: cell-based, Escherichia coli; settings: treated at 4x MIC for 3 hours
Method: as §6, §7

[10] = tested on: K. pneumoniae ATCC 10031; assay: as above; format: cell-based, Klebsiella pneumoniae; settings: treated at 4x MIC for 3 hours
Method: as §6, §7

[11] = tested on: E. coli N43; assay: MIC (stated as 4× MIC used for treatment); format: cell-based, Escherichia coli; settings: concentration equal to four times the MIC
[12] = tested on: K. pneumoniae ATCC 10031; assay: MIC (stated as 4× MIC used for treatment); format: cell-based, Klebsiella pneumoniae; settings: concentration equal to four times the MIC
[13] = tested on: MRSA LAC FtsZ-mCherry; assay: MIC (stated as 4× MIC used for treatment); format: cell-based, Staphylococcus aureus; settings: concentration equal to four times the MIC

SMILES: CC1=CC(C)=[N+]2C1=Cc1ccc(CCC(=O)O)n1[B-]2(F)F [BODIPY FL-COOH, 3-(5,5-difluoro-7,9-dimethyl-5H-5λ^4,6λ^4-dipyrrolo[1,2-c:2′,1′-f][1,3,2]diazaborinin-3-yl)propanoic acid, reference compound]
- Binding interaction (fluorescence anisotropy change on adding FtsZ) [1]: No such anisotropy change was observed
- Binding interaction (fluorescence anisotropy change on adding FtsZ) [2]: no such binding interactions were observable
- Binding interaction (fluorescence anisotropy change on adding FtsZ) [3]: no binding interactions with BODIPY FL-COOH were detectable
- Binding interaction (fluorescence anisotropy change on adding FtsZ) [4]: no binding interactions with BODIPY FL-COOH were detectable
- Fluorescence staining / FtsZ labeling in live cells [5]: no fluorescence staining of the S. aureus cells was detectable
- Fluorescence staining / FtsZ labeling in live cells [6]: no such FtsZ staining was detectable

SMILES: NC(=O)c1c(F)ccc(OCc2nc(-c3ccc(C(F)(F)F)cc3)c(Br)o2)c1F [compound 1]
- 4× MIC [7]: 1 mg/L
- MIC [7]: 0.25 mg/L (≈ 0.524 µM)
- Change in cell morphology [8]: cell enlargement
- FtsZ localization visualized with BOFP ([8]; then 1 µg/mL BOFP for 5 minutes): clear mislocalization of FtsZ and an absence of Z-rings
- Change in cell morphology [9]: filamentation
- FtsZ localization visualized with BOFP ([9]; then 1 µg/mL BOFP with 0.875 mg/mL pentamidine isethionate for 5 minutes): clear mislocalization of FtsZ and an absence of Z-rings
- Change in cell morphology [10]: filamentation
- FtsZ localization visualized with BOFP ([10]; then 1 µg/mL BOFP with 3.5 mg/mL pentamidine isethionate for 5 minutes): clear mislocalization of FtsZ and an absence of Z-rings
- 4× MIC [11]: 4 mg/L
- 4× MIC [12]: 4 mg/L
- 4× MIC [13]: 0.25 mg/L

More lines, now with the values ahead:

- 4× MIC [7]: 2 mg/L
SMILES: NC(=O)c1c(F)ccc(OCc2nc3cc(Cl)cnc3s2)c1F [PC190723]

- 4× MIC [7]: 4 mg/L
SMILES: NC(=O)c1c(F)ccc(OCc2nc3cc(C(F)(F)F)cnc3s2)c1F [TXA707]

- MIC [7]: 0.5 mg/L (≈ 0.986 µM)
SMILES: NC(=O)c1c(F)ccc(OC(CO)c2nc(-c3ccc(C(F)(F)F)cc3)c(Br)o2)c1F (centres unmarked) [compound 3]
